This note sets out measurements from patent publication US9376425B2, “Heterocyclic compounds as MDM2 inhibitors for the treatment of cancer” (AMGEN INC., priority 2011, dated 2016).

T1 sequence (Q00987 1-188): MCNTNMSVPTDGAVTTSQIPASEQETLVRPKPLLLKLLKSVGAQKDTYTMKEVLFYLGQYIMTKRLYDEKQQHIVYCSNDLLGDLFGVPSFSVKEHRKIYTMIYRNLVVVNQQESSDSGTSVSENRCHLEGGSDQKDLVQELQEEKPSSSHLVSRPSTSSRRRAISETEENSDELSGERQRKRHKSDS

This test has as its target T1, human MDM2 (GST-hMDM2 1-188), interaction with biotinylated-p53 (1-83) (Homo sapiens, UniProt Q00987).
T1 construct: Amino acid residues 1-188 of human MDM2 were expressed; made in house; host or cells: Escherichia coli
As to the kind of experiment: improved HTRF assay (HTRF2 assay), inhibition of HDM2-p53 interaction. The class given is binding. The conditions noted are these: 0.2 nM GST-hMDM2, 0.5 nM biotinylated-p53, 100 mM KF. Here is the method: Residues 1-83 of human p53 were expressed as an amino-terminal AviTag™-TrxA-6xHis fusion protein (biotinylated p53) in E. coli. Each protein was purified from cell paste by affinity chromatography.
Specifically, 10 uL of GST-hMDM2 was incubated with 10 ul of diluted compound (various concentrations, serially diluted) in 10% DMSO for 20 minutes at room temperature. 20 uL of biotinylated-p53 was added to the GST-hMDM2+ compound mixture, and then incubated at room temperature for 60 min. 10 uL of detection buffer consisting of SA-XLent, anti-GST cryptate antibody and KF was added to GST-hMDM2, biotinylated-p53 and compound reaction and left at room temperature to reach equilibrium for >4 hrs. The final concentration of DMSO in the reaction was 2%. Time-resolved fluorescence readings were measured on a microplate multilabel reader. Percentage of inhibition was calculated relative to nutlin-3.
(In general: Time-resolved FRET reads energy transfer from a long-lived donor to a nearby acceptor.)
As usually defined, the IC50 is the concentration needed to halve the response being measured. A low value points to greater potency. In turn, `CC[C@@H](CCS(=O)(=O)C(C)(C)C)N1C(=O)[C@@H](CC(=O)O)O[C@H](c2cccc(Cl)c2)[C@H]1c1ccc(Cl)cc1` (single isomer, unassigned) [Example 220, 2-((2R,5R,6R)-4-((S)-1-(tert-butylsulfonyl)pentan-3-yl)-6-(3-chlorophenyl)-5-(4-chlorophenyl)-3-oxomorpholin-2-yl)acetic acid or 2-((2S,5R,6R)-4-((S)-1-(tert-butylsulfonyl)pentan-3-yl)-6-(3-chlorophenyl)-5-(4-chlorophenyl)-3-oxomorpholin-2-yl)acetic acid] displayed an IC50 of 9 nM.

As for `C[C@@H](CS(=O)(=O)C(C)(C)C)N1C(=O)[C@@H](CC(=O)O)O[C@H](c2cc(F)cc(Cl)c2)[C@H]1c1ccc(Cl)c(F)c1` (single isomer, unassigned) [Example 423, 2-((2R,5R,6R)-4-((S)-1-(tert-Butylsulfonyl)propan-2-yl)-5-(4-chloro-3-fluorophenyl)-6-(3-chloro-5-fluorophenyl)-3-oxomorpholin-2-yl)acetic acid or 2-((2S,5R,6R)-4-((S)-1-(tert-butylsulfonyl)propan-2-yl)-5-(4-chloro-3-fluorophenyl)-6-(3-chloro-5-fluorophenyl)-3-oxomorpholin-2-yl)acetic acid], the IC50 came to 1 nM.

In turn, `CC[C@@H](CN(c1ccccc1Cl)S(=O)(=O)C1CC1)N1C(=O)[C@@H](CC(=O)O)O[C@H](c2cccc(Cl)c2)[C@H]1c1ccc(Cl)cc1` (single isomer, unassigned) [Example 265, 2-((2R,5R,6R)-6-(3-chlorophenyl)-5-(4-chlorophenyl)-4-((S)-1-(N-(2-chlorophenyl)cyclopropanesulfonamido)butan-2-yl)-3-oxomorpholin-2-yl)acetic acid or 2-((2S,5R,6R)-6-(3-chlorophenyl)-5-(4-chlorophenyl)-4-((S)-1-(N-(2-chlorophenyl)cyclopropanesulfonamido)butan-2-yl)-3-oxomorpholin-2-yl)acetic acid] had a half-inhibitory concentration (IC50) of 1 nM.

Compound `CC[C@@H](CS(=O)(=O)c1ccccn1)N1C(=O)[C@@H](CC(=O)O)O[C@H](c2cccc(Cl)c2)[C@H]1c1ccc(Cl)cc1` (single isomer, unassigned) [Example 203, 2-((2R,5R,6R)-6-(3-chlorophenyl)-5-(4-chlorophenyl)-3-oxo-4-((S)-1-(pyridin-2-ylsulfonyl)butan-2-yl)morpholin-2-yl)acetic acid or 2-((2S,5R,6R)-6-(3-chlorophenyl)-5-(4-chlorophenyl)-3-oxo-4-((S)-1-(pyridin-2-ylsulfonyl)butan-2-yl)morpholin-2-yl)acetic acid] had an IC50 of 20 nM.

`CC[C@@H](CS(=O)(=O)C(C)C)N1C(=O)[C@@H](CC(=O)O)O[C@H](c2cc(F)cc(Cl)c2)[C@H]1c1ccc(Cl)cc1` (single isomer, unassigned) [Example 124, 2-((2R,5R,6R)-6-(3-Chloro-5-fluorophenyl)-5-(4-chlorophenyl)-4-((S)-1-(isopropylsulfonyl)butan-2-yl)-3-oxomorpholin-2-yl)acetic acid or 2-((2S,5R,6R)-6-(3-Chloro-5-fluorophenyl)-5-(4-chlorophenyl)-4-((S)-1-(isopropylsulfonyl)butan-2-yl)-3-oxomorpholin-2-yl)acetic acid] showed an IC50 of 2 nM.

`CC[C@@H](CS(=O)(=O)C(C)(C)C)N1C(=O)[C@@H](CNC(C)=O)O[C@H](c2cccc(Cl)c2)[C@H]1c1ccc(Cl)cc1` (single isomer, unassigned) [Example 380, N-(((2R,5R,6R)-4-((S)-1-(tert-Butylsulfonyl)butan-2-yl)-6-(3-chlorophenyl)-5-(4-chlorophenyl)-3-oxomorpholin-2-yl)methyl)acetamide or N-(((2S,5R,6R)-4-((S)-1-(tert-butylsulfonyl)butan-2-yl)-6-(3-chlorophenyl)-5-(4-chlorophenyl)-3-oxomorpholin-2-yl)methyl)acetamide] showed an IC50 of 48 nM.

The compound `C[C@@H](CS(=O)(=O)C(C)(C)C)N1C(=O)[C@@H](CC(=O)NCCO)O[C@H](c2cccc(Cl)c2)[C@H]1c1ccc(Cl)cc1` (single isomer, unassigned) [Example 234, 2-((2R,5R,6R)-4-((S)-1-(tert-butylsulfonyl)propan-2-yl)-6-(3-chlorophenyl)-5-(4-chlorophenyl)-3-oxomorpholin-2-yl)-N-(2-hydroxyethyl)acetamide or 2-((2S,5R,6R)-4-((S)-1-(tert-butylsulfonyl)propan-2-yl)-6-(3-chlorophenyl)-5-(4-chlorophenyl)-3-oxomorpholin-2-yl)-N-(2-hydroxyethyl)acetamide] returned a half-maximal inhibitory concentration (IC50) of 15 nM.

With `CC(C)(O)CS(=O)(=O)C[C@H](C1CC1)N1C(=O)[C@@H](CC(=O)O)O[C@H](c2cccc(Cl)c2)[C@H]1c1ccc(Cl)cc1` (single isomer, unassigned) [Example 289, 2-((2R,5R,6R)-6-(3-Chlorophenyl)-5-(4-chlorophenyl)-4-((S)-1-cyclopropyl-2-((2-hydroxy-2-methylpropyl)sulfonyl)ethyl)-3-oxomorpholin-2-yl)acetic acid or 2-((2S,5R,6R)-6-(3-chlorophenyl)-5-(4-chlorophenyl)-4-((S)-1-cyclopropyl-2-((2-hydroxy-2-methylpropyl)sulfonyl)ethyl)-3-oxomorpholin-2-yl)acetic acid], the IC50 came out at 2 nM.

The compound `C=CC[C@@H]1O[C@H](c2cccc(Cl)c2)[C@@H](c2ccc(Cl)cc2)N([C@@H](CC)CN(c2ccccn2)S(=O)(=O)C2CC2)C1=O` (single isomer, unassigned) [Example 179, N-((S)-2-((2S,5R,6R)-2-allyl-6-(3-chlorophenyl)-5-(4-chlorophenyl)-3-oxomorpholino)butyl)-N-(pyridin-2-yl)cyclopropanesulfonamide or N-((S)-2-((2R,5R,6R)-2-allyl-6-(3-chlorophenyl)-5-(4-chlorophenyl)-3-oxomorpholino)butyl)-N-(pyridin-2-yl)cyclopropanesulfonamide] displayed an IC50 of 141 nM.

In turn, `CC[C@@H](CN(c1ccccc1F)S(=O)(=O)C1CC1)N1C(=O)[C@H](CC(=O)NS(C)(=O)=O)O[C@H](c2cccc(Cl)c2)[C@H]1c1ccc(Cl)cc1` (single isomer, unassigned) [Example 239, 2-((2S,5R,6R)-6-(3-chlorophenyl)-5-(4-chlorophenyl)-4-((S)-1-(N-(2-fluorophenyl)cyclopropanesulfonamido)butan-2-yl)-3-oxomorpholin-2-yl)-N-(methylsulfonyl)acetamide or 2-((2R,5R,6R)-6-(3-chlorophenyl)-5-(4-chlorophenyl)-4-((S)-1-(N-(2-fluorophenyl)cyclopropanesulfonamido)butan-2-yl)-3-oxomorpholin-2-yl)-N-(methylsulfonyl)acetamide] gave an IC50 of less than 1 nM.

In turn, `CC[C@@H](CS(=O)(=O)C(C)C)N1C(=O)[C@@H](CC(=O)O)O[C@H](c2cc(Cl)cc(Cl)c2)[C@H]1c1ccc(Cl)cc1` (single isomer, unassigned) [Example 145, 2-((2R,5R,6R)-5-(4-chlorophenyl)-6-(3,5-dichlorophenyl)-4-((S)-1-(isopropylsulfonyl)butan-2-yl)-3-oxomorpholin-2-yl)acetic acid or 2-((2S,5R,6R)-5-(4-chlorophenyl)-6-(3,5-dichlorophenyl)-4-((S)-1-(isopropylsulfonyl)butan-2-yl)-3-oxomorpholin-2-yl)acetic acid] registered an IC50 of 8 nM.

In turn, `CC[C@@H](CS(=O)(=O)C(C)(C)C)N1C(=O)[C@H](CC(=O)OC)O[C@H](c2cccc(Cl)c2)[C@H]1c1ccc(Cl)cc1` [Example 150, Methyl 2-((2S,5R,6R)-4-((S)-1-(tert-butylsulfonyl)butan-2-yl)-6-(3-chlorophenyl)-5-(4-chlorophenyl)-3-oxomorpholin-2-yl)acetate] gave an IC50 of 21 nM.

The compound `CNC(=O)C[C@H]1O[C@H](c2cccc(Cl)c2)[C@@H](c2ccc(Cl)cc2)N([C@H](CN(c2ccccc2F)S(=O)(=O)C2CC2)C2CC2)C1=O` (single isomer, unassigned) [Example 365, 2-((2R,5R,6R)-6-(3-Chlorophenyl)-5-(4-chlorophenyl)-4-((S)-1-cyclopropyl-2-(N-(2-fluorophenyl)cyclopropanesulfonamido)ethyl)-3-oxomorpholin-2-yl)-N-methylacetamide or 2-((2S,5R,6R)-6-(3-chlorophenyl)-5-(4-chlorophenyl)-4-((S)-1-cyclopropyl-2-(N-(2-fluorophenyl)cyclopropanesulfonamido)ethyl)-3-oxomorpholin-2-yl)-N-methylacetamide] yielded a 50% inhibitory concentration (IC50) of 2 nM.

Compound `CC(C)[C@@H](CS(=O)(=O)C(C)(C)C)N1C(=O)[C@@H](CC(=O)O)O[C@H](c2cccc(Cl)c2)[C@H]1c1ccc(Cl)c(F)c1` (single isomer, unassigned) [Example 312] displayed an IC50 of 279 nM.

As for `CC(C)[C@@H](CN(c1ccccc1)S(=O)(=O)C1CC1)N1C(=O)[C@@H](CC(=O)O)O[C@H](c2cccc(Cl)c2)[C@H]1c1ccc(Cl)cc1` (single isomer, unassigned) [Example 192, 2-((2R,5R,6R)-6-(3-chlorophenyl)-5-(4-chlorophenyl)-4-((S)-3-methyl-1-(N-phenylcyclopropanesulfonamido)butan-2-yl)-3-oxomorpholin-2-yl)acetic acid or 2-((2S,5R,6R)-6-(3-chlorophenyl)-5-(4-chlorophenyl)-4-((S)-3-methyl-1-(N-phenylcyclopropanesulfonamido)butan-2-yl)-3-oxomorpholin-2-yl)acetic acid], the IC50 is 1 nM.
